Assay results from article PMC7734590, “Identification of a Selective RelA Inhibitor Based on DSE-FRET Screening Methods” (International Journal of Molecular Sciences, 2020).
Several values for one entry are separate records, joined by “and”; a condition that tells them apart may be missing. Equal entries are not always repeated. Structures can show the parent of a compound that is named as a salt. Where two headings read alike, the source gives them in different places.

Tests used:
p52 = molecular target: T1, p52 (Homo sapiens, UniProt Q00653); experiment: DSE-FRET p52–DNA binding inhibition; format: biochemical; parameters: p52 Retest % Inhibition Run2 / p52 Retest % Inhibition Avg. / Kinetic assay p52 Inhibition % ΔRFU(60 min-0 min) / p52 HTS % Inhibition / p52 Retest % Inhibition Run1: dose or concentration left out as unconfirmed; conditions: for p52 Retest % Inhibition Avg.: Retest average of Run1 and Run2
T1 sequence (Q00653 1-454 limits assumed): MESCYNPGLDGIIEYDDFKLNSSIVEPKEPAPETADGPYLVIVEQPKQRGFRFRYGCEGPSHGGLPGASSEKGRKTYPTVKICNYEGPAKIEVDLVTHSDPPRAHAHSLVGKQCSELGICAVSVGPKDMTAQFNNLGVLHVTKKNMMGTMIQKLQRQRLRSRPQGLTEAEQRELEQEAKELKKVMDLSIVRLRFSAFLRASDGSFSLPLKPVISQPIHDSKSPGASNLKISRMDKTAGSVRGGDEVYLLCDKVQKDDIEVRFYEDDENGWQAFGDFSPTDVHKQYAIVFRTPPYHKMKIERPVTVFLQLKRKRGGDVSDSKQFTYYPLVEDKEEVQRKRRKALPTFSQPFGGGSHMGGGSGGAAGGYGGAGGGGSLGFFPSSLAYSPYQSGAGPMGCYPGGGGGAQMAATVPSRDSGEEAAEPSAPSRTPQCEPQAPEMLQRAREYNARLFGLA

RelA = RelA (Homo sapiens, UniProt Q04206); experiment: DSE-FRET RelA–DNA binding inhibition; format: biochemical; parameters: Kinetic assay RelA Inhibition % ΔRFU(60 min-0 min) / RelA HTS % Inhibition / RelA Retest % Inhibition Run1 / RelA Retest % Inhibition Run2 / RelA Retest % Inhibition Avg. / Kinetic assay RelA % Inhibition ΔRFU(60 min-0 min): dose or concentration left out as unconfirmed; conditions: for RelA Retest % Inhibition Avg.: Retest average of Run1 and Run2
[1] = HTS, known drugs, 10 µM, read-out: p52 HTS % Inhibition @ 10 µM
[2] = kinetic assay, 60 min-0 min, 10 µM, read-out: Kinetic assay @ 10 µM p52 % Inhibition ΔRFU(60 min-0 min)
[3] = retest, Run1, 10 µM, read-out: p52 Retest % Inhibition @ 10 µM Run1
[4] = retest, Run2, 10 µM, read-out: p52 Retest % Inhibition @ 10 µM Run2
[5] = retest, average of Run1 and Run2, 10 µM, read-out: p52 Retest % Inhibition @ 10 µM Avg.
[6] = HTS, known drugs, 10 µM, read-out: RelA HTS % Inhibition @ 10 µM
[7] = kinetic assay, 60 min-0 min, 10 µM, read-out: Kinetic assay @ 10 µM RelA % Inhibition ΔRFU(60 min-0 min)
[8] = retest, Run1, 10 µM, read-out: RelA Retest % Inhibition @ 10 µM Run1
[9] = retest, Run2, 10 µM, read-out: RelA Retest % Inhibition @ 10 µM Run2
[10] = retest, average of Run1 and Run2, 10 µM, read-out: RelA Retest % Inhibition @ 10 µM Avg.
[11] = kinetic assay, ΔRFU 60 min-0 min
[12] = retest of known drugs, 1 = judged hit

RelA, sequence (Q04206 19-306 limits assumed): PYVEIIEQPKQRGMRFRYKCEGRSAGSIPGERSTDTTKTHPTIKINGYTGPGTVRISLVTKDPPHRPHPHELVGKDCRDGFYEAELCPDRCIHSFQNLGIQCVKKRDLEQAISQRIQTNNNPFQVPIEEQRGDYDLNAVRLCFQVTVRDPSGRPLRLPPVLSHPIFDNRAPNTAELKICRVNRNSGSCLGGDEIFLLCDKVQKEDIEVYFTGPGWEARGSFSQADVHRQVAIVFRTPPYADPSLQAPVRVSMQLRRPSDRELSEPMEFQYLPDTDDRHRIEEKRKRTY

Structure (SMILES)	Kinetic assay p52 % Inhibition ΔRFU(60 min-0 min) (p52; kinetic assay, 60 min-0 min)	Kinetic assay RelA % Inhibition ΔRFU(60 min-0 min) (RelA; kinetic assay, 60 min-0 min)	inhibition at 10 µM (p52; [1]) [%]	inhibition at 10 µM (p52; [2]) [%]	inhibition at 10 µM (p52; [3]) [%]	inhibition at 10 µM (p52; [4]) [%]	inhibition at 10 µM (p52; [5]) [%]	inhibition at 10 µM (RelA; [6]) [%]	inhibition at 10 µM (RelA; [7]) [%]	inhibition at 10 µM (RelA; [8]) [%]	inhibition at 10 µM (RelA; [9]) [%]	inhibition at 10 µM (RelA; [10]) [%]	further results
O=C1Nc2ccc(I)cc2/C1=C/c1cc(Br)c(O)c(Br)c1 [GW 5074]	-18%	-17%											
COc1cccc2c1C(=O)c1c(O)c3c(c(O)c1C2=O)C[C@@](O)(C(=O)CO)C[C@@H]3O[C@H]1C[C@H](N)[C@H](O)[C@H](C)O1 [DOXORUBICIN]	-16%	-14%											
O=C(O)c1cc(O)c2c(c1)[C@H]([C@H]1c3cc(C(=O)O)cc(O)c3C(=O)c3c(O[C@@H]4O[C@H](CO)[C@@H](O)[C@H](O)[C@H]4O)cccc31)c1cccc(O[C@@H]3O[C@H](CO)[C@@H](O)[C@H](O)[C@H]3O)c1C2=O [Sennoside A]													Hit Judgement of: p52 (p52; 1 = judged hit after retest): 1; Hit Judgement of: RelA (RelA; 1 = judged hit after retest): 1; inhibition at 5 µg/mL (RelA; HTS, 5 µg/mL, NPDepo hits, read-out: RelA HTS % Inhibition @ 5 µg/mL): 85.4%; inhibition at 5 µg/mL (RelA; Retest Run1, 5 µg/mL, read-out: RelA Retest % Inhibition @ 5 µg/mL Run1): 88.7%; inhibition at 5 µg/mL (RelA; Retest Run2, 5 µg/mL, read-out: RelA Retest % Inhibition @ 5 µg/mL Run2): 100%; inhibition at 5 µg/mL (RelA; Retest average of Run1 and Run2, 5 µg/mL, read-out: RelA Retest % Inhibition @ 5 µg/mL Avg.): 94.6%; inhibition at 5 µg/mL (RelA; kinetic assay, 5 µg/mL, ΔRFU 60 min-0 min, read-out: Kinetic assay @ 5 µg/mL RelA Inhibition % ΔRFU(60 min-0 min)): 31%
O=c1cc[nH]c(=O)[nH]1 [URACIL]			30.5	-1	0.245	0.9	0.6	1.1	-1.11	0.0644	0.634	0.349	
Cn1cc(C2=C(c3ccc(Cl)cc3Cl)C(=O)NC2=O)c2ccccc21 [SB 216763]			18.6	-10	64.6	76.1	70.3	146	-12	73.3	82.1	77.7	
COc1cccc2c1C(=O)c1c(O)c3c(c(O)c1C2=O)C[C@@](O)(C(=O)CO)C[C@@H]3O[C@H]1C[C@H](N)[C@H](O)[C@H](C)O1 [Doxorubicin hydrochloride]	-15% and -17%	-15%											
OCCN(CCO)c1nc(N2CCCCC2)c2nc(N(CCO)CCO)nc(N3CCCCC3)c2n1 [Dipyridamole]	-0.806% and -5%	-4.24% and -5.31%											
O=c1c(=Cc2ccc(-c3ccccc3F)o2)sc2nc3sc4c(c3c(=O)n12)CCCC4													p52 HTS % Inhibition (p52; HTS, NPDepo hits): 20.7%; p52 Retest % Inhibition Run1 (p52): 25.8%; p52 Retest % Inhibition Run2 (p52): 30.7%; p52 Retest % Inhibition Avg. (p52): 28.2%; Kinetic assay p52 Inhibition % ΔRFU(60 min-0 min) (p52; kinetic assay): -0.236%; RelA HTS % Inhibition (RelA; HTS, NPDepo hits): 33.6%; RelA Retest % Inhibition Run1 (RelA): 26.4%; RelA Retest % Inhibition Run2 (RelA): 32.2%; RelA Retest % Inhibition Avg. (RelA): 29.3%; Kinetic assay RelA Inhibition % ΔRFU(60 min-0 min) (RelA; [11]): 0.774%
O=C(O[C@H]1C[C@H]2CC[C@@H](C1)[N+]21CCCC1)C(O)(c1ccccc1)c1ccccc1 [TROSPIUM CHLORIDE]			116					108					
CC(=O)Oc1cccc2c1C(=O)c1c(OC(C)=O)cc(C(=O)O)cc1C2=O [DIACERIN]	2.21%	3%											
O=C(O)CSCC(=O)N1CCn2c3c(c4cc(C5CCCCC5)ccc42)CCCC31 (centres unmarked)													p52 HTS % Inhibition (p52; HTS, NPDepo hits): 19.2%; p52 Retest % Inhibition Run1 (p52): 18.8%; p52 Retest % Inhibition Run2 (p52): 22.6%; p52 Retest % Inhibition Avg. (p52): 20.7%; Kinetic assay p52 Inhibition % ΔRFU(60 min-0 min) (p52; kinetic assay): -3.52%; RelA HTS % Inhibition (RelA; HTS, NPDepo hits): 35.7%; RelA Retest % Inhibition Run1 (RelA): 22.2%; RelA Retest % Inhibition Run2 (RelA): 23.7%; RelA Retest % Inhibition Avg. (RelA): 22.9%; Kinetic assay RelA Inhibition % ΔRFU(60 min-0 min) (RelA; [11]): -2.34%
Nc1ccc2nc3ccc(N)cc3[n+](-c3ccccc3)c2c1.[Cl-] [Phenosafranin]													p52 HTS % Inhibition (p52; HTS, NPDepo hits): 86.7%; p52 Retest % Inhibition Run1 (p52): 78.7%; p52 Retest % Inhibition Run2 (p52): 85.1%; p52 Retest % Inhibition Avg. (p52): 81.9%; Kinetic assay p52 Inhibition % ΔRFU(60 min-0 min) (p52; kinetic assay): -3.56%; RelA HTS % Inhibition (RelA; HTS, NPDepo hits): 99.3%; RelA Retest % Inhibition Run1 (RelA): 77.2%; RelA Retest % Inhibition Run2 (RelA): 83.4%; RelA Retest % Inhibition Avg. (RelA): 80.3%; Kinetic assay RelA Inhibition % ΔRFU(60 min-0 min) (RelA; [11]): -12%

Continued, in another order:

Kinetic assay p52 % Inhibition ΔRFU(60 min-0 min) (p52; kinetic assay, 60 min-0 min)	Kinetic assay RelA % Inhibition ΔRFU(60 min-0 min) (RelA; kinetic assay, 60 min-0 min)	inhibition at 10 µM (p52; [1]) [%]	inhibition at 10 µM (p52; [2]) [%]	inhibition at 10 µM (p52; [3]) [%]	inhibition at 10 µM (p52; [4]) [%]	inhibition at 10 µM (p52; [5]) [%]	inhibition at 10 µM (RelA; [6]) [%]	inhibition at 10 µM (RelA; [7]) [%]	inhibition at 10 µM (RelA; [8]) [%]	inhibition at 10 µM (RelA; [9]) [%]	inhibition at 10 µM (RelA; [10]) [%]	Structure (SMILES)	further results
		24	2.44	62.3	35.8	49	78.1	4.59	70.4	77.2	73.8	Cc1cc(-c2ccc(/N=N/c3ccc4c(S(=O)(=O)O)cc(S(=O)(=O)O)c(N)c4c3O)c(C)c2)ccc1/N=N/c1ccc2c(S(=O)(=O)O)cc(S(=O)(=O)O)c(N)c2c1O [EVANS BLUE]	
-17%	-17%											CCN(CC)CCCC(C)Nc1c2ccc(Cl)cc2nc2ccc(OC)cc12 (centres unmarked) [Quinacrine dihydrochloride dihydrate]	
		33.8	-12	29.3	32.3	30.8	29.9	-15	32.3	36.4	34.3	Cc1[nH]c(/C=C2\C(=O)Nc3ccccc32)c(C)c1CCC(=O)O [SU 6668]	
7%	21%											CC1(C)C(=O)N=C2C1=C(O)C(=O)c1ccccc12 [BVT 948]	p52 HTS % Inhibition (p52; HTS, known drugs): 38.2%; p52 Retest % Inhibition Run1 (p52): 22.0%; p52 Retest % Inhibition Run2 (p52): 33.7%; p52 Retest % Inhibition Avg. (p52): 27.8%; Hit Judgement of: p52 (p52; [12]): 1; RelA HTS % Inhibition (RelA; HTS, known drugs): 34.4%; RelA Retest % Inhibition Run1 (RelA): 48.4%; RelA Retest % Inhibition Run2 (RelA): 67.6%; RelA Retest % Inhibition Avg. (RelA): 58.0%; Hit Judgement of: RelA (RelA; [12]): 1
		98	92	78.9	110	94.2	96.9	94	91.9	106	98.9	CC(C)(O/N=C(\C(=O)N[C@@H]1C(=O)N2C(C(=O)[O-])=C(C[n+]3ccccc3)CS[C@H]12)c1csc(N)n1)C(=O)O [CEFTAZIDIME]	Hit Judgement of: p52 (p52; [12]): 1; Hit Judgement of: RelA (RelA; [12]): 1
1.64%	9%											O=C1C(Cl)=C(NCCN2CCOCC2)C(=O)c2ncccc21 [NSC 663284]	p52 HTS % Inhibition (p52; HTS, known drugs): 39.5%; p52 Retest % Inhibition Run1 (p52): 24.9%; p52 Retest % Inhibition Run2 (p52): 28.6%; p52 Retest % Inhibition Avg. (p52): 26.7%; Hit Judgement of: p52 (p52; [12]): 1; RelA HTS % Inhibition (RelA; HTS, known drugs): 37.5%; RelA Retest % Inhibition Run1 (RelA): 37.2%; RelA Retest % Inhibition Run2 (RelA): 41.8%; RelA Retest % Inhibition Avg. (RelA): 39.5%; Hit Judgement of: RelA (RelA; [12]): 1
		103	-31	88	99.8	93.9	101	-27	88.6	99.1	93.9	Cc1[nH]c(/C=C2\C(=O)Nc3ccc(S(=O)(=O)Cc4c(Cl)cccc4Cl)cc32)c(C)c1C(=O)N1CCC[C@@H]1CN1CCCC1 [PHA 665752]	
